# Patent publication US20260174863A1, “ISOMERICALLY PURE BETA-CYCLODEXTRIN DERIVATIVES AND USES THEREOF” (Beren Therapeutics P.B.C., priority 2023, published 2026)
# Key:
# [1] = test system: differentiated human THP-1 monocytes; assay: CEC - Cholesterol Efflux Assay (abcam ab196985); format: cell-based; conditions: 4 h, reference standard = non-isomerically pure hydroxypropyl beta-cyclodextrin
# Experimental: Cholesterol Efflux from differentiated human THP-1 monocytes was assessed according to the manufacturer's protocol (abcam, ab196985). Briefly, THP-1 monocytes were differentiated for 48 h in presence of 100 nM phorbol 12-myristate-13-acetate (PMA) in RPMI 1640 growth medium (10% FCS, 1% penicillin/streptomycin) in a humidified incubator (37° C., 5% CO2). Differentiated THP-1 macrophage-like cells were harvested, washed with PBS, resuspended in growth medium, seeded at 1×10^5 cells into 96-well plates, and allowed to adhere for 6h. Cells were washed with serum-free RPMI media, and labelled with 100 μL of fluorescent cholesterol labelling medium (50 uL Labeling Reagent+50 uL serum-free RPMI) for 1 h protected from light. Labeling medium was removed and replaced with 100 μL, 37° C. pre-warmed equilibration medium (50 uL Equilibration Buffer+[…] Reagent A +10 μL/mL Reagent B+50 uL serum-free RPMI) and incubated for 16±1 h in an incubator (37° C., 5% CO2). Equilibration medium was removed, and cells were washed with RPMI (w/o phenol red, w/o serum). Serum cholesterol acceptor was prepared by mixing 2 parts of Serum Treatment Reagent with 5 parts of human serum, incubated on ice for 20 minutes. The mix was centrifuged at 9,000×g for 10 minutes at 4° C., and supernatants were stored on ice until use. THP-1 cells were incubated for 4 h with 100 uL RPMI media (w/o phenol red, w/o serum), spiked with 10 uL of compound (10× stock in PBS) and 2 uL serum acceptor (2%), or RPMI media spiked with 10 uL PBS and 2 uL serum acceptor (negative control). Following incubation, plates were centrifuged and whole supernatants were transferred to an opaque 96-well plate. Remaining cells were lysed by adding 100 μL of Cell Lysis Buffer and shaking at 500 rpm for 25 minutes protected from light. Cell lysate was resuspended and transferred into an opaque 96-well. Plates containing supernatants or cell lysates were measured in a plate reader at 485 nm (excitation) and 523 nm (emission). Percent (%) cholesterol efflux was measured as RFU supernatant/(RFU supernatant +RFU cell lysate)×100%.
# The cholesterol efflux from cells treated with compounds of the disclosure at concentrations of 0.1 mM, 0.3 mM and 1 mM, relative to cholesterol efflux from cells treated with a reference standard, are summarized in Table 1. In the table, A denotes compounds with a CEC of >126% of that of the reference standard and B denotes compounds with a CEC of 106% to 125% of that of the reference standard; 0 denotes compounds with a CEC of 96%-105% of that of the reference standard; and—denotes compounds with a CEC of 75%-95% of that of the reference standard. The reference standard is a non-isomerically pure hydroxypropyl beta-cyclodextrin.
# [2] = test system: differentiated human THP-1 monocytes; assay: Cytotoxicity assay, lactate dehydrogenase (LDH) release (CytoTox 96, Promega G1780); format: cell-based; conditions: samples from CEC assay, reference standard = non-isomerically pure hydroxypropyl beta-cyclodextrin
# Experimental: Cytotoxicity was measured using a lactate dehydrogenase (LDH) assay, according to the manufacturer's protocol (CytoTox 96® Non-Radioactive Cytotoxicity Assay, Promega, G1780). Supernatants and cell lysates from CEC assay served as samples. Briefly, 50 uL of supernatant and cell lysates were transferred into separate transparent 96-well plates. 50 uL CytoTox 96© Reagent was added to the wells, mixed by pipetting, and incubated for 10 minutes protected from light. 50 μL of Stop Solution was added, mixed by pipetting, and absorbance (OD) was measured at 490 nm in a plate reader. Phenol red-free RPMI with 10% […] and Cell Lysis Buffer (abcam, ab196985) served as background controls. Percent (%) cytotoxicity was measured as OD supernatant/(OD supernatant+OD cell lysate)×100%.
# Lactate dehydrogenase (LDH) released from cells treated with compounds of the disclosure at concentrations of 0.1 mM, 0.3 mM and 1 mM, relative to LDH) released from cells treated with a reference standard, are summarized in Table 2. In the table, A denotes compounds releasing LDH in an amount of <70% of that of the reference standard; B denotes compounds releasing LDH in an amount of 71-95% of that of the reference standard; 0 denotes compounds releasing LDH in an amount of 96%-105% of that of the reference standard; +denotes compounds releasing LDH in an amount of 106%-120% of that of the reference standard; and ++denotes compounds releasing LDH in an amount of >120% of that of the reference standard The reference standard is a non-isomerically pure hydroxypropyl beta-cyclodextrin.
SMILES,"Cholesterol efflux from cells treated with compounds, relative to reference standard ([1]; 0.1 mM)","Cholesterol efflux from cells treated with compounds, relative to reference standard ([1]; 0.3 mM)","Cholesterol efflux from cells treated with compounds, relative to reference standard ([1]; 1 mM)","Release of lactate dehydrogenase from cells treated with compounds, relative to reference standard ([2]; 0.1 mM)","Release of lactate dehydrogenase from cells treated with compounds, relative to reference standard ([2]; 0.3 mM)","Release of lactate dehydrogenase from cells treated with compounds, relative to reference standard ([2]; 1 mM)"
COCCO[C@H]1[C@H]2O[C@H]3[C@H](O)[C@@H](OCCOC)[C@@H](O[C@H]4[C@H](O)[C@@H](OCCOC)[C@@H](O[C@H]5[C@H](O)[C@@H](OCCOC)[C@@H](O[C@H]6[C@H](O)[C@@H](OCCOC)[C@@H](O[C@H]7[C@H](O)[C@@H](OCCOC)[C@@H](O[C@H]8[C@H](O)[C@@H](OCCOC)[C@@H](O[C@@H]([C@@H]1O)[C@@H](CO)O2)O[C@@H]8CO)O[C@@H]7CO)O[C@@H]6CO)O[C@@H]5CO)O[C@@H]4CO)O[C@@H]3CO [Compound 1],0 (0 denotes compounds with a CEC of 96%-105% of that of the reference standard),0 (0 denotes compounds with a CEC of 96%-105% of that of the reference standard),0 (0 denotes compounds with a CEC of 96%-105% of that of the reference standard),B (B denotes compounds releasing LDH in an amount of 71-95% of that of the reference standard),B (B denotes compounds releasing LDH in an amount of 71-95% of that of the reference standard),B (B denotes compounds releasing LDH in an amount of 71-95% of that of the reference standard)
OCC(O)CO[C@H]1[C@H]2O[C@H]3[C@H](O)[C@@H](OCC(O)CO)[C@@H](O[C@H]4[C@H](O)[C@@H](OCC(O)CO)[C@@H](O[C@H]5[C@H](O)[C@@H](OCC(O)CO)[C@@H](O[C@H]6[C@H](O)[C@@H](OCC(O)CO)[C@@H](O[C@H]7[C@H](O)[C@@H](OCC(O)CO)[C@@H](O[C@H]8[C@H](O)[C@@H](OCC(O)CO)[C@@H](O[C@@H]([C@@H]1O)[C@@H](CO)O2)O[C@@H]8CO)O[C@@H]7CO)O[C@@H]6CO)O[C@@H]5CO)O[C@@H]4CO)O[C@@H]3CO (stereo partly drawn) [Compound 3],− (—denotes compounds with a CEC of 75%-95% of that of the reference standard),− (—denotes compounds with a CEC of 75%-95% of that of the reference standard),− (—denotes compounds with a CEC of 75%-95% of that of the reference standard),++ (++denotes compounds releasing LDH in an amount of >120% of that of the reference standard),+ (+denotes compounds releasing LDH in an amount of 106%-120% of that of the reference standard),0 (0 denotes compounds releasing LDH in an amount of 96%-105% of that of the reference standard)
CC(O)CO[C@@H]1[C@@H](O)[C@H]2O[C@H]3[C@H](OCC(C)O)[C@@H](O)[C@@H](O[C@H]4[C@H](OCC(C)O)[C@@H](O)[C@@H](O[C@H]5[C@H](OCC(C)O)[C@@H](O)[C@@H](O[C@H]6[C@H](OCC(C)O)[C@@H](O)[C@@H](O[C@H]7[C@H](OCC(C)O)[C@@H](O)[C@@H](O[C@H]8[C@H](OCC(C)O)[C@@H](O)[C@@H](O[C@@H]1[C@@H](CO)O2)O[C@@H]8CO)O[C@@H]7CO)O[C@@H]6CO)O[C@@H]5CO)O[C@@H]4CO)O[C@@H]3CO (stereo partly drawn) [Compound 4],− (—denotes compounds with a CEC of 75%-95% of that of the reference standard),− (—denotes compounds with a CEC of 75%-95% of that of the reference standard),− (—denotes compounds with a CEC of 75%-95% of that of the reference standard),++ (++denotes compounds releasing LDH in an amount of >120% of that of the reference standard),++ (++denotes compounds releasing LDH in an amount of >120% of that of the reference standard),++ (++denotes compounds releasing LDH in an amount of >120% of that of the reference standard)
CC(O)CO[C@H]1[C@H]2O[C@H]3[C@H](O)[C@@H](OCC(C)O)[C@@H](O[C@H]4[C@H](O)[C@@H](OCC(C)O)[C@@H](O[C@H]5[C@H](O)[C@@H](OCC(C)O)[C@@H](O[C@H]6[C@H](O)[C@@H](OCC(C)O)[C@@H](O[C@H]7[C@H](O)[C@@H](OCC(C)O)[C@@H](O[C@H]8[C@H](O)[C@@H](OCC(C)O)[C@@H](O[C@@H]([C@@H]1O)[C@@H](CO)O2)O[C@@H]8CO)O[C@@H]7CO)O[C@@H]6CO)O[C@@H]5CO)O[C@@H]4CO)O[C@@H]3CO (stereo partly drawn) [Compound 5],− (—denotes compounds with a CEC of 75%-95% of that of the reference standard),− (—denotes compounds with a CEC of 75%-95% of that of the reference standard),− (—denotes compounds with a CEC of 75%-95% of that of the reference standard),0 (0 denotes compounds releasing LDH in an amount of 96%-105% of that of the reference standard),0 (0 denotes compounds releasing LDH in an amount of 96%-105% of that of the reference standard),0 (0 denotes compounds releasing LDH in an amount of 96%-105% of that of the reference standard)
CC(C)(O)CO[C@@H]1[C@@H](O)[C@H]2O[C@H]3[C@H](OCC(C)(C)O)[C@@H](O)[C@@H](O[C@H]4[C@H](OCC(C)(C)O)[C@@H](O)[C@@H](O[C@H]5[C@H](OCC(C)(C)O)[C@@H](O)[C@@H](O[C@H]6[C@H](OCC(C)(C)O)[C@@H](O)[C@@H](O[C@H]7[C@H](OCC(C)(C)O)[C@@H](O)[C@@H](O[C@H]8[C@H](OCC(C)(C)O)[C@@H](O)[C@@H](O[C@@H]1[C@@H](CO)O2)O[C@@H]8CO)O[C@@H]7CO)O[C@@H]6CO)O[C@@H]5CO)O[C@@H]4CO)O[C@@H]3CO [Compound 6],0 (0 denotes compounds with a CEC of 96%-105% of that of the reference standard),− (—denotes compounds with a CEC of 75%-95% of that of the reference standard),− (—denotes compounds with a CEC of 75%-95% of that of the reference standard),0 (0 denotes compounds releasing LDH in an amount of 96%-105% of that of the reference standard),+ (+denotes compounds releasing LDH in an amount of 106%-120% of that of the reference standard),+ (+denotes compounds releasing LDH in an amount of 106%-120% of that of the reference standard)
